# Data as given in ChEMBL document CHEMBL3045780, “EGFR tyrosine kinase targeted compounds: synthesis, docking study, and in vitro antitumor activity of some new quinazoline and benzo[d]isothiazole derivatives” (Med Chem Res, 2011).
# Test system: MCF7
# Assay: Cytotoxicity against Homo sapiens (human) MCF7 cells after 48 hr by SRB assay
# Type: functional, cell-based
# Details: MCF7, 48 h
row,Compound,IC50
1,NS(=O)(=O)c1ccc(Nc2ncnc3ccccc23)cc1,2.4 µg/mL
2,c1ccc2c(Nc3ccc(Nc4ncnc5ccccc45)cc3)ncnc2c1,0.06 µg/mL
3,Cc1ccc(S(=O)(=O)NC(=O)N2C(=O)c3ccccc3S2(=O)=O)cc1,5.65 µg/mL
4,O=S1(=O)N=C(Nc2nnc(-c3ccccc3)s2)c2ccccc21,2.92 µg/mL
5,N=C(N)NS(=O)(=O)c1ccc(NC2=NS(=O)(=O)c3ccccc32)cc1,4.3 µg/mL
6,N=C(N)NS(=O)(=O)c1ccc(NNC2=NS(=O)(=O)c3ccccc32)cc1,4.35 µg/mL
7,c1ccc(-c2nnc(Nc3ncnc4ccccc34)s2)cc1,3.61 µg/mL
8,NS(=O)(=O)c1ccc(NC2=NS(=O)(=O)c3ccccc32)cc1,4.17 µg/mL
9,O=C(NS(=O)(=O)c1ccc(Cl)cc1)n1cnc2ccccc2c1=O,3.74 µg/mL
10,N=C(N)NS(=O)(=O)c1ccc(Nc2ncnc3ccccc23)cc1,1.85 µg/mL
11,Clc1ccc(-c2nnc(Nc3ncnc4ccccc34)s2)cc1,2.04 µg/mL
12,N=C(N)NS(=O)(=O)c1ccc(NNc2ncnc3ccccc23)cc1,1.65 µg/mL
13,NS(=O)(=O)c1ccc(NNc2ncnc3ccccc23)cc1,1.13 µg/mL
14,c1ccc2c(NCCNc3ncnc4ccccc34)ncnc2c1,2.04 µg/mL
15,c1cc(Nc2ncnc3ccccc23)cc(Nc2ncnc3ccccc23)c1,2.04 µg/mL
16,O=C(NS(=O)(=O)c1ccc(Cl)cc1)N1C(=O)c2ccccc2S1(=O)=O,6.03 µg/mL
17,NS(=O)(=O)c1ccc(NNC2=NS(=O)(=O)c3ccccc32)cc1,3.73 µg/mL
18,O=S1(=O)N=C(NCCNC2=NS(=O)(=O)c3ccccc32)c2ccccc21,3.69 µg/mL
19,O=S1(=O)N=C(Nc2ccc(NC3=NS(=O)(=O)c4ccccc43)cc2)c2ccccc21,2.76 µg/mL
20,O=S1(=O)N=C(Nc2cccc(NC3=NS(=O)(=O)c4ccccc43)c2)c2ccccc21,3.14 µg/mL
21,Cc1ccc(S(=O)(=O)NC(=O)n2cnc3ccccc3c2=O)cc1,3.96 µg/mL
22,O=S1(=O)N=C(Nc2nnc(-c3ccc(Cl)cc3)s2)c2ccccc21,2.92 µg/mL
